# From US9376665B2, “Method for producing intestinal cells” (National University Corporation Kumamoto University, priority 2010, dated 2016)
# “Also recorded” adds a separate entry of the source.
# Experiments:
# [1] = system: definitive endoderm cells; assay: Effects of FGFs on intestinal differentiation of definitive endoderm cells (RT-PCR, Cdx2 immunohistochemistry); assay type: cell-based, mouse
# Description: The ES cells were culture on M15 cells added with 20 ng/mL of activin and 50 ng/mL of bFGF in DMEM medium containing 10% fetal bovine sera and […] of glucose for 5 days, and were analyzed using flow cytometry for definitive endoderm. For intestinal differentiation, the ES cells were further cultured on M15 or MEF cells, in the presence of BIO and DAPT, or without BIO and DAPT but with FGFs, in media with 10% KSR at a glucose concentration of 2000 mg/mL.
# 256 ng/mL of FGF2 (human bFGF) (Peprotech); and
# 50 ng/mL of FGF4 (Peprotech), FGF5 (Sigma), FGF7 (R&D Systems), FGF8 (Cosmo Bio), FGF9 (Peprotech), FGF10 (R&D Systems) and FGF18 (Sigma), respectively.
# RNA was extracted from the ES cells using TRI Reagent (Sigma) or RNeasy micro-kit (Qiagen), and then, was treated with DNase (Sigma). Three micrograms of RNA were reverse-transcribed using a MMLV reverse transcriptase (Toyobo) and oligo dT primers (Toyobo). The PCR conditions for each cycle include initial denaturation at 96° C. for one minute, and the second and subsequent cycles of denaturation at 96° C. for 30 seconds, annealing at 60° C. for 2 seconds and extension at 72° C. for 20 seconds, and the final cycle of extension at 72° C. for 7 minutes. RT-PCR products were separated by 5% non-denaturing polyacrylamide gel electrophoresis, stained with SYBR Green I (Molecular Probes), and visualized using Gel Logic 200 Imaging System (Kodak).
# [2] = system: mouse ES cells; assay: Test Example 2: addition of various activators, proportion of Cdx2-positive cells by flow cytometry, feeder-free; assay type: cell-based; conditions: for Cdx2-positive cells: BIO (5 μM) and DAPT (10 μM) with or without FGF2 50 ng/mL
# Description: Therefore, next, an experiment in which the FGF signaling, the BMP signaling and the Hh signaling were activated was carried out. In view of micro-array data showing that MEF cells express FGF2 and BMP4, 50 ng/mL of FGF2 (PEPROTECH) and 25 ng/mL of BMP4 (R&D Systems) were used to activate the FGF signaling and the BMP signaling. Furthermore, as to activation of the Hh signaling, 300 nM of SAG (MERCK) (smoothend agonist; smo) was used.
# For the experiment of inducing the differentiation, the induction of differentiation was carried out in a feeder-free system as described below. First, mouse ES cells were plated on a gelatin-coated dish at 6,900 cells/cm^2. The ES cells were cultured for 7 days in DMEM medium (Dulbecco's Modified Eagle Medium) (Invitrogen, Glasgow, UK) containing 4,500 mg/L of glucose, supplemented with NEAA, L-Gln, PS, β-ME, 10 μg/mL of Insulin (Sigma-Aldrich), […] of Transferin (Sigma-Aldrich), 6.7 pg/mL of Selenium (Sigma-Aldrich), 0.25% AlbuMax (Invitrogen), and 10 ng/mL of recombinant human activin A (R&D Systems, Minneapolis, Minn.), and then, the culture medium was replaced with 10% KSR containing 2,000 mg/mL of glucose, BIO (5 μM) and DAPT (10 μM) and further supplemented with the activator or growth factor. After that, cell culturing was further continued, the cells were separated on the 10th day and the 15th day of cultivation as described in Example 1, and then, the proportion of Cdx2-positive cells was evaluated by use of flow cytometry. The flow cytometry (FACS) analysis was carried out using BD Cytofix/Cytoperm™ Kit (BD Biosciences) in accordance with a manual provided by the manufacturer.
# [3] = system: human ES cells; assay: Test Example 3: addition of various activators in human ES cells, proportion of Cdx2-positive cells by flow cytometry; assay type: cell-based; conditions: 20th day of cultivation; FGF2 50 ng/mL besides BIO (5 ηM) and DAPT (10 μM)
# Description: With respect to human ES cells, it was examined whether or not addition of FGF2, BMP4 and/or SAG improves an efficiency of differentiation into Cdx2-positive cells in a feeder-free system.
# First, for the experiment of inducing the differentiation, human ES cells were plated on gelatin-coated dishes at 69,000 cells/cm^2. The ES cells were cultured for seven days in RPMI 1640 medium (Invitrogen) supplemented with NEAA, L-Gln, PS, β-ME, 10 μg/mL of Insulin (Sigma-Aldrich), 100 ng/mL of recombinant human activin A (R&D Systems, Minneapolis, Minn.), and B27 supplement (Invitrogen). Then, the culture medium was replaced with 10% KSR supplemented with 2,000 mg/mL of glucose, BIO ([…]), DAPT (10 μM) and activators and growth factors at the concentrations as described in Test Example 2. After that, cell culturing was further continued, and the cells were separated on the 9th day and the 20th day of cultivation in the same manner as Example 1, and then, the proportion of Cdx2-positive cells was evaluated by use of flow cytometry. The flow cytometry (FACS) analysis was carried out using BD Cytofix/Cytoperm™ Kit (BD Biosciences) in accordance with a manual provided by the manufacturer.
# [4] = system: human ES cells; assay: Test Example 4: effect of FGF2 concentration on human ES cells, proportion of Cdx2-positive cells by flow cytometry; assay type: cell-based
# Description: Since there has been a previous report that a high concentration of FGF2 is important for differentiation of human ES cells into Cdx2-positive cells, it was examined whether or not the same results can be obtained. The final concentration of 250 ng/mL of FGF2 was used. In accordance with the method in Test Example 3, differentiation of human ES cells was carried out on gelatin-coated dishes until they differentiated into endoderm, and then (on the 7th day of cultivation), 0, 50, and 250 ng/mL of FGF2, respectively, were added thereto besides BIO (5 μM) and DAPT (10 μM), and the cells were further cultured until the 9th day or 20th day, and the proportion of Cdx2-positive cells was evaluated by flow cytometry. The flow cytometry (FACS) analysis was carried out using BD Cytofix/Cytoperm™ Kit (BD Biosciences) in accordance with a manual provided by the manufacturer.
# [5] = system: khES-3 (human ES cell line); assay: Intestinal differentiation of human ES cells on M15 cells; assay type: cell-based; design: dose or concentration left out as unconfirmed; conditions: activin for 10 days
# From the text: Human ES cells (KhES-3) (PMID: 16707099) was those provided by Dr. N. Nakatsuji and Dr. H. Suemori (Kyoto University, Kyoto, Japan), and were used in accordance with the hES cell guidelines of the Japanese government. The undifferentiated hES cells were maintained on a feeder layer of MEF in Knockout DMEM/F12 (Invitrogen) supplemented with 20% KSR, L-Gln, NEAA and β-ME under 3% CO2. To passage the hES cells, hES cell colonies were detached from the feeder layer by treating them with 0.25% trypsin and 0.1 mg/mL of collagenase IV in PBS containing 20% KSR and 1 mM of CaCl2 at 37° C. for 5 minutes, followed by adding a culture medium thereto and gently pipetting them several times to desegregate ES cell clumps into smaller pieces (5-20 cells).
# For differentiation induction, the human ES cells were pre-treated with Y27632 (Wako) for 24 hours, and then, they were plated at 50,000 cells per well in 24-well plates that had been pre-coated with M15 cells. The ES cells were dissociated with 0.25% trypsin-EDTA (Invitrogen), and cultured in Y27632 containing an ES maintenance medium for one day. One day after plating, the cells were washed by PBS, and the medium was changed to a differentiation medium. […]
Molecule,"induction of Cdx2-expressing intestinal cells ([1]; FGFs added from Day 4 of the differentiation, on MEF cells, immunohistochemistry on day 12)","molecular markers for enterocytes (Ifabp, Isx), goblet cells (Tff3), Paneth cells (Lyz1) and enteroendocrine cells (Sct, Syp, Sst, Gast) ([1]; RT-PCR, day 15, BIO and DAPT, or FGF2 (256 ng/mL) only without BIO and DAPT)",Cdx2-positive cells ([2]; 10th day of cultivation) [%],"number of Cdx2-positive cells versus control (only BIO and DAPT) ([2]; 10th day of cultivation, FGF2 50 ng/mL or SAG 300 nM added besides BIO and DAPT)",Cdx2-positive cells ([2]; 15th day of cultivation),"efficiency of differentiation versus control (only BIO and DAPT) ([2]; 15th day of cultivation, FGF2 added besides BIO and DAPT)",proportion of Cdx2-positive cells [3],"proportion of Cdx2-positive cells ([4]; 9th day of cultivation, 250 ng/mL of FGF2 besides BIO (5 μM) and DAPT (10 μM))","proportion of Cdx2 positive cells ([4]; 20th day of cultivation, 0, 50 and 250 ng/mL of FGF2 besides BIO (5 μM) and DAPT (10 μM))",differentiation of khES-3 into definitive endoderm [5]
"FGF2: basic fibroblast growth factor, FGF2 (human bFGF) (Peprotech)",induced Cdx2-expressing intestinal cells,induced at much lower levels; also recorded: small in extent,40,significant increase,about 60%,more efficiently differentiate,decreased,decreased,decreased depending on the concentration of FGF2,–
"activin: recombinant human activin-A (R&D Systems) (protein, UniProt P08476 311-426, looked up, Inhibin beta A chain) Inhibin beta A chain: GLECDGKVNICCKKQFFVSFKDIGWNDWIIAPSGYHANYCEGECPSHIAGTSGSSLSFHSTVINHYRMRGHSPFANLKSCCVPTKLRPMSMLYYDDGQNIIKKDIQNMIVEECGCS",–,–,–,–,–,–,–,–,–,differentiated into definitive endoderm
